# Legend:
# [1] = Kinetic solubility in FeSSIF; assay type: physicochemical; conditions: 37° C., 30 min, 10 mg in 1 mL
# Procedure: When solubility test is used to predict the in vivo performance of a drug, it is critical to simulate in vivo conditions as closely as possible. For oral medication, Fed-State Simulated Intestinal Fluid (FeSSIF) can be used to simulate the condition in vivo and predict the effects of feeding, thus solubility in such mediums is closer to that in vivo.
# 10 mg of Form CSII and 10 mg of prior art Form 1B were suspended into 1 mL of FeSSIF to get suspensions. After equilibrated at 37° C. for 30 min, the suspensions were filtrated to get saturated solutions. The concentrations (mg/mL) of Compound I of the saturated solutions were measured by HPLC.
# [2] = Particle size distribution (laser particle size analyzer, wet mode); assay type: physicochemical
# Procedure: The particle size distribution data in the present disclosure were acquired by an Mastersizer 3000 laser particle size analyzer of Malvern. The test was carried out in wet mode, using a Hydro MV dispersion device, and the dispersant was Isopar G. The parameters are as follows:
# An appropriate amount of Form CSII of the present disclosure and prior art Form 1B was tested particle size distribution. The average particle diameter calculated by volume, the diameter at which 10% mass is comprised of smaller particles (D10), the diameter at which 50% mass is comprised of smaller particles (D50) and the diameter at which 90% mass is comprised of smaller particles (D90) were obtained in particle size distribution test.
# Morphology by microscopy = assay type: physicochemical; conditions: magnification of 200 times
# From the text: An appropriate amount of Form CSII of the present disclosure was placed on a glass slide and dispersed with vacuum pump oil. It was covered with a cover glass slide and shoot at a magnification of 200 times.
# [3] = Flowability (compressibility index, USP <1174>); assay type: physicochemical; conditions: for Compressibility index: c=(pf−p0)/pf; for Flowability: criteria of USP <1174> Powder Flow
# Procedure: Compressibility index is usually utilized to evaluate the flowability of powder or granules during the drug product process. Compressibility index test method is as follows: a certain amount of powder was added into a measuring cylinder and bulk volume was recorded. Then the powder was tapped to make it in the tightest state and the tapped volume was recorded. The bulk density (p0), tapped density (pf) were calculated and compressibility index was calculated according to c=(pf−p0)/pf. According to the criteria of flowability in USP General Charpters: <1174> Powder Flow, the flowability results are shown in Table 10.
# [4] = Compressibility (tablet hardness / tensile strength); assay type: physicochemical; conditions: 60 mg, φ6 mm round tooling, 5 KN; for Hardness: 24 h recovery
# Procedure: An ENERPAC manual tablet press was used for compression. 60 mg of Form CSII and prior art Form 1B were weighed and added into the dies of a φ6 mm round tooling, compressed at 5 KN manually, then stored at room temperature for 24 h until elastic recovery is complete, hardness (H) was tested with an intelligent tablet hardness tester. Diameter (D) and thickness (L) were tested with a caliper. Tensile strength of the powder was calculated with the following formula: T=2H/TTDL. Under a certain force, the greater the tensile strength, the better the compressibility.
# [5] = Adhesiveness (material sticking to the punch); assay type: physicochemical; conditions: 30 mg, Φ8 mm round tooling, 10 KN, held 30 s
# Procedure: 30 mg of Form CSII and 30 mg of prior art Form 1B were weighed and then added into the dies of Φ8 mm round tooling, compressed at 10 KN by ENERPAC manual tablet press and held for 30 s. The punch was weighed and amount of material sticking to the punch was calculated. The compression was repeated twice and the average amount of material sticking to the punch during the compression were calculated.
# [6] = Storage stability of Form CSII drug substance (XRPD, HPLC); assay type: physicochemical
# Procedure: An appropriate amount of Form CSII of the present disclosure were stored under different sealed conditions of 25° C./60% RH and 40° C./75% RH with desiccant and antioxidant. Chemical purity and crystalline form were checked by HPLC and XRPD, respectively. […] Form CSII has good stability under both long-term and accelerated conditions.
# [7] = Stability upon mechanical force (tableting pressure, grinding); assay type: physicochemical
# [8] = Crystal form stability in formulation process; assay type: physicochemical; conditions: formulation of Table 15, process of Table 16
# From the text: Form CSII of the present disclosure was made into capsules using the formulation in Table 15 and the preparation process in Table 16. The XRPD patterns were collected before and after the formulation process.
# [9] = cited from earlier work; for Humidity stability / form conversion: as disclosed in WO2020010216A1 (FIG. 1, Table 17)
# [10] = low solubility and low permeability; cited from earlier work
# [11] = 25° C./60% RH, sealed with desiccant and antioxidant, 6 months
# [12] = 40° C./75% RH, sealed with desiccant and antioxidant, 6 months
Solubility [1] [µg/mL],D10 [2] [μm],D50 [2] [μm],D90 [2] [μm],MV (average particle diameter calculated by volume) [2] [μm],Bulk density [3] [g/mL],Tapped density [3] [g/mL],Compressibility index [3],Flowability [3],Tensile strength [4] [MPa],Hardness [4] [kgf],Average amount of material sticking to the punch [5] [mg],Structure (SMILES),Humidity stability / form conversion [9],also measured
2590,2.11,14.9,28.3,15.8,0.237,0.266,11,Good,0.97,18.4,0.21,"CCNCCc1ccc(CN(CC)c2cc(OC)ccc2[C@@H]2CCc3cc(O)ccc3C2)cc1 [Form CSII, (R)-6-{2-{ethyl [4-(2-ethylaminoethyl)benzyl]amino}-4-methoxyphenyl}-5,6,7,8-tetrahydronaphthalen-2-ol]",,"Agglomeration (morphology) (Morphology by microscopy): no agglomeration; Maximum particle size (Morphology by microscopy): 30-40 μm; Time kept stable (crystalline state unchanged) ([6]; 25° C./60% RH): at least 6 months; Form (XRPD) [6, 11]: Form CSII; Purity [6, 11]: 99.60%; Time kept stable (crystalline state unchanged) ([6]; 40° C./75% RH): at least 6 months; Form (XRPD) [6, 12]: Form CSII; Purity [6, 12]: 99.58%; Form (XRPD) ([6]; Initial): Form CSII; Purity ([6]; Initial): 99.59%; Solid form after tableting ([7]; Pressure 5 kN): Form CSII; Solid form after tableting ([7]; Pressure 10 kN): Form CSII; Solid form after tableting ([7]; Pressure 15 kN): Form CSII; Crystalline form after grinding ([7]; grinding (ball milling, FIG. 5)): doesn't change; Crystalline form before and after formulation process [8]: remains stable"
1170,1.64,286,839,350,0.198,0.248,20,Fair,0.44,9.3,0.59,"CCNCCc1ccc(CN(CC)c2cc(OC)ccc2[C@@H]2CCc3cc(O)ccc3C2)cc1 [Prior art Form 1B, reference compound]",can maintain stability at humidity above 90% RH,Particle morphology ([9]; Table 17 of WO2020010216A1): very small flaky particle mainly composed of aggregates
,,,,,,,,,,,,"CCNCCc1ccc(CN(CC)c2cc(OC)ccc2[C@@H]2CCc3cc(O)ccc3C2)cc1 [Elacestrant, (R)-6-{2-{ethyl [4-(2-ethylaminoethyl)benzyl]amino}-4-methoxyphenyl}-5,6,7,8-tetrahydronaphthalen-2-ol]",,BCS class [10]: BCS class IV
,,,,,,,,,,,,CCNCCc1ccc(CN(CC)c2cc(OC)ccc2[C@@H]2CCc3cc(O)ccc3C2)cc1 [Form 3],transitions to Form 2 when humidity is above 40% RH,
,,,,,,,,,,,,CCNCCc1ccc(CN(CC)c2cc(OC)ccc2[C@@H]2CCc3cc(O)ccc3C2)cc1 [Form 1],transitions to Form 3 under high humidity conditions,
,,,,,,,,,,,,CCNCCc1ccc(CN(CC)c2cc(OC)ccc2[C@@H]2CCc3cc(O)ccc3C2)cc1 [Form 2],transitions to Form 3 when humidity is below 40% RH,

# From US20250282711A1, “CRYSTALLINE FORM OF ELACESTRANT AND PREPARATION METHOD AND USE THEREOF” (CRYSTAL PHARMACEUTICAL (SUZHOU) CO., LTD., priority 2022, published 2025)
